# From ChEMBL document CHEMBL1201862, “PubChem BioAssay data set” (2004)
# Where a name gives a salt, the structure may show the parent alone. Activity calls are given as the source filed them.
# Columns and labels:
# [1] = target: Beta-galactosidase (Escherichia coli, UniProt Q8VNN2); assay: Dose response counterscreen for EBI2 assay utilizing the enzyme, b-galactosidase.; type: functional
# [2] = general mammalian cell viability loss – activator set, cherry-pick, cytotoxicity control for miR-122 modulator project, dose response (AID 720690); type: functional, cell-based;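 further: HEK293T human cells scored for general mammalian cytotoxicity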
# [3] = target: Paired box protein Pax-8 (Homo sapiens, UniProt Q06710); assay: PAX8 transcriptional activity inhibition in RMG-I – RMG-I cells, luciferase, cherry-pick, dose response (AID 687027); type: functional, cell-based;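 further: luciferase reporter driven by Pax8 target thyroperoxidase promoter measured by SteadyGlo luminescence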
# Chain of Paired box protein Pax-8 (Q06710 whole entry): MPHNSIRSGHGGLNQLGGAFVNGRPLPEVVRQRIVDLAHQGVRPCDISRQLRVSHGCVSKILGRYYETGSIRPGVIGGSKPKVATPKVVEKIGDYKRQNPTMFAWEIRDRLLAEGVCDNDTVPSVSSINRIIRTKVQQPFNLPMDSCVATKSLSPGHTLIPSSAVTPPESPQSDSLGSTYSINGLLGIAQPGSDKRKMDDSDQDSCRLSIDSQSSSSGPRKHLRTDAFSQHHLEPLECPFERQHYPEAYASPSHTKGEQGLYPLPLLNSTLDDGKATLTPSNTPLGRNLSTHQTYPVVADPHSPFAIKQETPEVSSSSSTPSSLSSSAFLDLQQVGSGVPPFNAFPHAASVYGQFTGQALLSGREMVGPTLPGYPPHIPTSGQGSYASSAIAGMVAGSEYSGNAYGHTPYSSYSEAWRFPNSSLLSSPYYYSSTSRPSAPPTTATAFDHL
# [4] = OVCAR8 cell viability loss – plate reader, dry powder samples, PAX8 project, dose response (AID 743197); type: functional, cell-based; conditions: OVCAR-8
# [5] = OVCAR-3 cell viability loss – plate reader, dry powder samples, PAX8 inhibitor project, dose response (AID 743044); type: functional, cell-based
# [6] = general mammalian cell viability loss – inhibitor set, cherry-pick, set 2, cytotoxicity control for miR-122 modulator project, dose response (AID 720697); type: functional, cell-based
# [7] = A2780 cell killing – plate reader, dry powder samples, cytotoxicity control, dose response (AID 743046); type: functional, cell-based
# [8] = general cell-killing toxicity readout – plate reader, dry powder samples, cytotoxicity control for PAX8 inhibitor project, dose response (AID 743021); type: functional, cell-based
# [9] = P. falciparum Dd2 growth inhibitors, dose response, SYBR Green, cherry-picked samples (AID 1159567); type: functional, cell-based
# [10] = Dd2 parasite growth inhibition in erythrocytes – SYBR Green, dry powder samples, set 9, dose response (AID 1159568); type: functional, cell-based
# [11] = growth inhibition of PfATP4-mutant resistant parasites – NITD609-resistant line, SYBR Green, dry powder, dose response (AID 1159571); type: functional, cell-based;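 further: parasites synchronized at ring stage by sorbitol before testing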
# [12] = growth inhibition of yeast DHODH-expressing 3D7 parasites – SYBR Green, dry powder samples, dose response (AID 1159570); type: functional, cell-based;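 further: parasite growth measured after 72 hours of compound exposure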
# [13] = Dd2 malaria parasite growth inhibition potency – SYBR Green, dry powder samples, dose response (AID 1159566); type: functional, cell-based;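 further: potency for growth inhibition with lower SYBR green DNA signal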
# [14] = target: T1, Protein Tat (Human immunodeficiency virus type 1 group M subtype B (isolate HXB2)(HIV-1), UniProt P04608); type: functional;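 further: tat binding to TAR RNA read out by fluorescence polarization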
# T1 sequence (P04608 whole entry): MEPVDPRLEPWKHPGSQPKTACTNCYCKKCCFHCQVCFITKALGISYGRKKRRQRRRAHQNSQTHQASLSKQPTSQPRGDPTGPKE
# [15] = test system: H4; assay: Luminescence Cell-Based Dose Response HTS to Identify Activators of 5'UTR Stem-Loop Driven Prion Protein mRNA Translation in H4 Neuroglioblastoma Cells. [Related pubchem assays: 1829 (Project Summary), 1814 (Primary HTS)]; type: functional; conditions: Homo sapiens
# [16] = Luminescence Cell-Based Dose Response HTS to Identify Activators of Luciferase Translation or Activity in H4 […] Cells. [Related pubchem assays: 1829 (Project Summary), 1814 (Primary HTS)]; type: functional
# [17] = Luminescence Cell-Based Dose Response to Identify Activators of Luciferase Translation or Activity in H4-C Neuroglioblastoma Cells. [Related pubchem assays: 1829 (Project Summary), 1814 (Primary HTS)]; type: functional
# [18] = Luminescence Cell-Based Dose Response to Identify Activators of 5'UTR Stem-Loop Driven Prion Protein mRNA Translation in H4-C Neuroglioblastoma Cells. [Related pubchem assays: 1829 (Project Summary), 1814 (Primary HTS)]; type: functional
# [19] = Luminescence Cell-Based Dose Confirmation to Identify Activators of 5'UTR Stem-Loop Driven Alpha-Synuclein mRNA Translation in H4 Neuroglioblastoma Cells. [Related pubchem assays: 1829 (Project Summary), 1814 (Primary HTS)]; type: functional
# [20] = Luminescence Cell-Based Dose Confirmation HTS to Identify Activators of 5'UTR Stem-Loop Driven Alpha-Synuclein mRNA Translation in H4 Neuroglioblastoma Cells. [Related pubchem assays: 1829 (Project Summary), 1814 (Primary HTS)]; type: functional
# [21] = A549 cell cytotoxicity, dose response, cytotoxicity control, plate reader, cherry-pick, antagonist series (AID 743412); type: functional, cell-based
# [22] = blockers of HIV-1 ZM109 envelope-driven cell-cell fusion – HeLa effector, CEM target cells, luciferase, cherry-pick, dose response (AID 652058); type: functional, cell-based;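 further: luciferase signal from HIV-1 Env mediated cell-cell fusion of effector and target cells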
# [23] = viability loss in HEK293 cells – cell-based, plate reader, cherry-picked samples, cytotoxicity control, dose response (AID 743446); type: functional
# [24] = blockers of HIV-1 envelope-mediated cell-cell fusion – cherry-pick, dose response (AID 652057); type: functional, cell-based
# [25] = viability loss in CEM21 cells – cell-based, CellTiter-Glo luminescence, cherry-picked, cytotoxicity control for viral fusion inhibitor project, dose response (AID 652042); type: functional;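 further: potency for signal decrease meaning cytotoxicity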
# [26] = blockade of melanocortin 4 receptor signaling – cell-based, plate reader, cherry pick, counter-screen for LGR2 antagonist project, dose response (AID 743444); type: functional;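 further: transfected HEK 293 cells stimulated with alpha-MSH peptide; potency of inhibitors of the alpha-MSH evoked signal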
# [27] = toxicity toward HepG2 liver cells – cell-based, plate reader, cherry-pick, antagonist series, cytotoxicity control, dose response (AID 743416); type: functional
# [28] = blockers of bursicon-stimulated LGR2 cAMP reporter – cell-based, HEK293, CRE-luciferase reporter, cherry pick, set 2, dose response (AID 743343); type: functional;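 further: transfected cells were stimulated with diluted bursicon conditioned medium after compound addition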
# [29] = off-target signal loss in HeLa-CEM21 co-culture – HeLa F-luc CTL cells, cherry-picked, counter-screen for HIV-1 Env fusion inhibitor project, dose response (AID 652040); type: functional, cell-based;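 further: potency for signal decrease marking cytotoxic or nonspecific inhibition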
# [30] = HIV-1 AD8 envelope cell-cell fusion blockers – cherry-pick, dose response (AID 652062); type: functional, cell-based;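 further: luciferase signal from cell-cell fusion driven by HIV-1 clade B AD8 Env; potency is for inhibitors of fusion seen as a drop in luminescence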
# [31] = T. cruzi growth inhibition in host cells, dose response, cell-based, plate reader, dry powder, set 2 (AID 652275); type: functional
# [32] = IGROV1 cell killing – plate reader, dry powder samples, PAX8 inhibitor project, dose response (AID 743043); type: functional, cell-based; conditions: IGROV-1
# [33] = target: T2, DNA repair protein RAD52 homolog (Homo sapiens, UniProt P43351); type: functional, biochemical
# T2 sequence (P43351 whole entry): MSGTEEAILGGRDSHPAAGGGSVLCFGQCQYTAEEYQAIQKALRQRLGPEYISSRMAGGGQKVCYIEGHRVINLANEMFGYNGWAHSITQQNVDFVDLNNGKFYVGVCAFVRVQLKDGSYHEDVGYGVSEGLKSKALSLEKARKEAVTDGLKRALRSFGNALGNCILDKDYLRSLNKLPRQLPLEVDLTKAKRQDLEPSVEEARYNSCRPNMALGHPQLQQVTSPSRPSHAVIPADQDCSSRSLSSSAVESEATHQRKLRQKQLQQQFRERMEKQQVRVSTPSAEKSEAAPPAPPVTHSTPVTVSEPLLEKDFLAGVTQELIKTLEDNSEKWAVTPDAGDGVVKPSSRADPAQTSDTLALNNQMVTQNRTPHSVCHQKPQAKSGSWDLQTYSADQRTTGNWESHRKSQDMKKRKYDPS
# [34] = IC50 of insulin release inhibition, rat insulinoma INS-1E line, 5 mM glucose, cell-based (AID 1117331); type: functional
# [35] = target: Heat shock protein HSP 90-alpha (Homo sapiens, UniProt P07900); assay: Luminescence-based dose response biochemical high throughput screening assay for inhibitors of the Heat Shock Protein 90 (HSP90). [Related pubchem assays: 1831 (Summary AID.), 1846 (Confirmation screen.), 1789 (Primary screen.)]
# [36] = NIH3T3 cell viability loss – ATP luminescence, mouse fibroblasts, counter-screen, dose response (AID 2010); type: functional, cell-based;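 further: cells exposed to compound for about 90 hours before reading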
# [37] = test system: INS1; assay: INS-1E survival protection against cytokine death – cell-based, luminescence, retest, dose response (AID 449756); type: functional; conditions: Rattus norvegicus;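 further: cell death triggered by IL-1 beta plus TNF-alpha plus IFN-gamma mixture; protective hits raise ATP signal compared with cytokine alone wells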
# [38] = target: Arf-GAP with SH3 domain, ANK repeat and PH domain-containing protein 1 (Homo sapiens, UniProt Q9ULH1); type: functional;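 further: biochemical fluorescence polarization dose–response screen measuring inhibition of ASAP1; ASAP1 GAP domain stimulating GTP hydrolysis by truncated human ARF1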
# Chain of Arf-GAP with SH3 domain, ANK repeat and PH domain-containing protein 1 (Q9ULH1 whole entry, the tested form may be a part): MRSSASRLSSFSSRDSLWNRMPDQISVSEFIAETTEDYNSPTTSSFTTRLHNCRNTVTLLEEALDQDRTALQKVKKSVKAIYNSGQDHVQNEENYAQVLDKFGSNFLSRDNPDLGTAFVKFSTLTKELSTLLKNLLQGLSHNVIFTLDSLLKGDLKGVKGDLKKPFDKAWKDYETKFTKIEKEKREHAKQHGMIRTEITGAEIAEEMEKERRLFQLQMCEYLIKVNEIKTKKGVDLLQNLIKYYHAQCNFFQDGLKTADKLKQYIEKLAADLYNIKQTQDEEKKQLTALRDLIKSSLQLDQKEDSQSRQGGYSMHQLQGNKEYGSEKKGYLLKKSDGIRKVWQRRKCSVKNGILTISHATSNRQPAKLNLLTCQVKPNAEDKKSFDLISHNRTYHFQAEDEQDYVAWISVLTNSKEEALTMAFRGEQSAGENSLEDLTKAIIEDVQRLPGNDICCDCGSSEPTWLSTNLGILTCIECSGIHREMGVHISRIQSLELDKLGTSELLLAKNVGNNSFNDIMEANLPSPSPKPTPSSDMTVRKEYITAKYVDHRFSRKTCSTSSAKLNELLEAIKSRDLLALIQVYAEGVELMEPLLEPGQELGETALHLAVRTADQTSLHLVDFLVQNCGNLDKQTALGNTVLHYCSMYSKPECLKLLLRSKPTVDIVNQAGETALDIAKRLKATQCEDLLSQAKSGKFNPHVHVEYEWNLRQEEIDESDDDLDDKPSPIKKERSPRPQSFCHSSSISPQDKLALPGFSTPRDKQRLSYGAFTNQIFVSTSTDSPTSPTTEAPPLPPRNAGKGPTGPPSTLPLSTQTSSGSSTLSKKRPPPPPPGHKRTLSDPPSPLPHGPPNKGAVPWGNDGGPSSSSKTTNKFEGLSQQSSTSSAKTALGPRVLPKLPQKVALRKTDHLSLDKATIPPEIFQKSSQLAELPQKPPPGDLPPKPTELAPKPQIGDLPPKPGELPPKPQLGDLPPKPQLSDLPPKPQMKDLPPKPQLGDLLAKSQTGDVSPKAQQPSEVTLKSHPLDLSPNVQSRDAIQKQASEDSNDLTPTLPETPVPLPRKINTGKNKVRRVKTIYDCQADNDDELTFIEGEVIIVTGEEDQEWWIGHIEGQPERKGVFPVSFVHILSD
# [39] = Luminescence Cell-Based Dose Retest to Confirm Inhibitors of Cancer Stem Cells. [Related pubchem assays (depositor defined):AID2717, AID2721]; type: functional; conditions: Homo sapiens
# [40] = target: T3, Ubiquitin-conjugating enzyme E2 N (Homo sapiens, UniProt P61088); type: functional;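 further: Dose-response confirmation in a TR-FRET assay detecting UBC13-driven polyubiquitin chain formation, inhibition measured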
# T3 sequence (P61088 whole entry): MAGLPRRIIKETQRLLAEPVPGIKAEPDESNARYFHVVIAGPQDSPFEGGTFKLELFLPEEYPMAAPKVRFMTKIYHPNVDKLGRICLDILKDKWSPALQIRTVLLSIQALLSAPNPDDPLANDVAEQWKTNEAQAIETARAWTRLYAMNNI
# [41] = Trypanosoma cruzi growth suppression in host cells – NIH3T3 host cells, beta-gal luminescence, confirmation (AID 2044); type: functional, cell-based;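 further: intracellular parasites grown in NIH/3T3 mouse fibroblasts as host cells; luminescent beta-galactosidase reporter signal from transgenic T. cruzi replicating inside host cells; inhibitors lower the luminescence signal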
# Chain of Beta-galactosidase (Q8VNN2 whole entry): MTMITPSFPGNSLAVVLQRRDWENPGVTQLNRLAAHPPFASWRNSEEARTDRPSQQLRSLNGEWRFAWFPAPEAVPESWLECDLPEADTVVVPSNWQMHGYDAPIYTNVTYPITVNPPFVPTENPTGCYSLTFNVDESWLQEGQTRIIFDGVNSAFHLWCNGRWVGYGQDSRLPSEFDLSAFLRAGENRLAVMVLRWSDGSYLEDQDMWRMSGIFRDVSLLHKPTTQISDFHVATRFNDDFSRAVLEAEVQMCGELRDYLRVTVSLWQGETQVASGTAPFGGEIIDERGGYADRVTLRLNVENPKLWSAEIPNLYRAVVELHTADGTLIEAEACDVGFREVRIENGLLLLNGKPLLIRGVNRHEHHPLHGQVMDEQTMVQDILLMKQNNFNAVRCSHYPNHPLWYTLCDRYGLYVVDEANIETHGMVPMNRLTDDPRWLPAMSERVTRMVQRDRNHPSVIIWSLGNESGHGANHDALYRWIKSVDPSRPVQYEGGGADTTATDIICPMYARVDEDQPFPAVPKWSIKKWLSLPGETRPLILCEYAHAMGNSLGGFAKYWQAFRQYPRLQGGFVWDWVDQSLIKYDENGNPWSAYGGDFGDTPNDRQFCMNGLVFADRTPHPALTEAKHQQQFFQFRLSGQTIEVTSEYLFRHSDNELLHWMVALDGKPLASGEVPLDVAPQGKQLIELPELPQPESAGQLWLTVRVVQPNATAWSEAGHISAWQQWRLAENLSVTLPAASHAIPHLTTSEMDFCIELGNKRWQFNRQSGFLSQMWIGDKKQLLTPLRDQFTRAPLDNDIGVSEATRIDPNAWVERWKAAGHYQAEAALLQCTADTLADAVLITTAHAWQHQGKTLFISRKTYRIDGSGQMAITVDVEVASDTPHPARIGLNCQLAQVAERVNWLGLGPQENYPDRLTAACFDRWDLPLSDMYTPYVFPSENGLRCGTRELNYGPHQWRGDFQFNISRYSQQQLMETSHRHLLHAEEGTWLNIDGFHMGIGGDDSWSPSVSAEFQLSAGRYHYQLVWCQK
structure (smiles),measurement,setting,value
CCN1CCN(c2ccc(S(=O)(=O)N3CCOCC3)cc2NC(=O)/C=C/c2ccc(C)cc2)CC1,IC50,[1],> 80 µM (inactive)
C[C@@H]1CN([C@@H](C)CO)S(=O)(=O)c2ccc(C#Cc3ccccc3F)cc2O[C@@H]1CN(C)C(=O)c1ccc2c(c1)OCO2,AC50,[2],26.9 µM (active)
same,AC50,[3],13.2 µM (active)
same,AC50,[4],> 70 µM (inactive)
same,AC50,[5],20.5 µM (active)
CO[C@@H]1CN(C)C(=O)c2ccc(NC(C)=O)cc2OC[C@@H](C)N(C(=O)c2ccccc2F)C[C@H]1C,AC50,[6],0.147 µM (active)
O=C(Cc1cccnc1)N1CCCCN2[C@H](C1)[C@H](c1ccc(/C=C/c3ccccc3)cc1)[C@@H]2CO,AC50,[7],25.1 µM (active)
same,AC50,[3],4.42 µM (active)
same,AC50,[8],50.6 µM (active)
same,AC50,[4],41.2 µM (active)
same,AC50,[5],5.01 µM (active)
CN1CCN(C(=O)/C=C/c2ccc(Cl)cc2)CC1,IC50,[1],> 80 µM (inactive)
COc1ccc(N2CCN(C(=O)c3cc4c(s3)-c3ccccc3OC4)CC2)cc1,IC50,[1],> 80 µM (inactive)
C[C@@H]1CN([C@@H](C)CO)C(=O)c2cccc(NC(=O)c3cnccn3)c2O[C@@H]1CN(C)Cc1ccc(-c2ccccc2)cc1,AC50,[9],1.14 µM (active)
same,AC50,[10],0.378 µM (active)
same,AC50,[11],0.357 µM (active)
same,AC50,[12],0.0947 µM (active)
same,AC50,[13],0.381 µM (active)
C[C@H]1CN([C@@H](C)CO)C(=O)c2cccc(NC(=O)NC3CCCCC3)c2O[C@H]1CN(C)Cc1ccc(C(F)(F)F)cc1,AC50,[10],31.7 µM (active)
COc1ccc(C(=O)N/N=C/c2cccnc2)cc1,IC50,[14],> 100 µM (active)
Cc1cc(O)cc(O)c1C(=O)Cc1cnn(-c2ccccc2)c1,IC50,[14],> 100 µM (inconclusive)
COc1ccc(/C=N/Nc2nnc(-c3ncc[nH]3)c3ccccc23)cc1,EC50,[15],65.2 µM (active)
same,EC50,[16],1.93 µM (active)
same,EC50,[17],1.34 µM (active)
same,EC50,[18],> 12 µM (not active)
same,EC50,[19],0.962 µM (active)
same,EC50,[20],< 0.1 µM (active)
CC(C)c1ccc(OCCCN2CCC(C(O)(c3ccccc3)c3ccccc3)CC2)cc1,AC50,[21],9.56 µM (active)
same,AC50,[22],9.88 µM (active)
same,AC50,[23],14 µM (active)
same,AC50,[24],9.63 µM (active)
same,AC50,[25],7.21 µM (active)
same,AC50,[26],5.65 µM (active)
same,AC50,[27],7.6 µM (active)
same,AC50,[28],6.8 µM (active)
same,AC50,[29],7.88 µM (active)
same,AC50,[30],9.48 µM (active)
Cc1cc(C(C)(C)C)oc1C(=O)N(CC(=O)NC1CCCC1)Cc1ccc(Cl)cc1,AC50,[24],6.45 µM (active)
same,AC50,[25],49.5 µM (active)
same,AC50,[29],> 70 µM (inactive)
O=C(Cc1ccccn1)N1CCCCN2[C@@H](CO)[C@H](c3ccc(-c4ccccc4)cc3)[C@@H]2C1,AC50,[31],0.551 µM (active)
O=C(C[C@@H]1CC[C@@H]2[C@H](COC[C@@H](O)CN2C(=O)Nc2ccc(Cl)c(Cl)c2)O1)NCc1ccc(Cl)cc1,AC50,[7],60 µM (active)
same,AC50,[32],33.9 µM (active)
same,AC50,[3],8.87 µM (active)
same,AC50,[4],53.3 µM (active)
same,AC50,[5],33.5 µM (active)
Cc1cccc(S(=O)(=O)N2CC[C@@H]3[C@H]2c2cc(C4=CCCCC4)ccc2N[C@@H]3CO)c1,AC50,[32],55.6 µM (active)
same,AC50,[3],10.8 µM (active)
same,AC50,[4],> 70 µM (inactive)
CCCCOc1cc(C(=O)OCCN(CC)CC)ccc1N [BENOXINATE HYDROCHLORIDE],AC50,[33],33.9 µM (active)
same,IC50,[34],15.5 µM (inactive)
CC(=O)Oc1ccccc1/C=C/c1nc2ccccc2c(=O)o1,IC50,[35],5.31 µM (active)
COc1ccc(/N=C/c2sc(O)c3ccccc23)cc1,EC50,[15],< 0.1 µM (active)
same,EC50,[16],< 0.1 µM (active)
same,EC50,[17],0.433 µM (active)
same,EC50,[18],0.315 µM (active)
same,EC50,[19],0.228 µM (active)
same,EC50,[20],< 0.1 µM (active)
OCCNc1nc(Nc2ccc(Cl)c(Cl)c2)nc2ccccc12,EC50,[36],> 30 µM (not active)
same,AC50,[37],13.4 µM (active)
same,IC50,[38],55.3 µM (inactive)
same,AC50,[39],2.43 µM (active)
same,IC50,[40],> 20 µM (inactive)
same,EC50,[41],0.464 µM (active)
C[C@@H]1CCCCO[C@H](CN(C)Cc2ccc(C(F)(F)F)cc2)[C@H](C)CN([C@@H](C)CO)C(=O)c2cc(NC(=O)Nc3ccc4c(c3)OCO4)ccc2O1,AC50,[7],42.2 µM (active)
same,AC50,[32],40.9 µM (active)
same,AC50,[3],3.34 µM (active)
same,AC50,[4],36.8 µM (active)
same,AC50,[5],48.7 µM (active)
CN1C(=O)CC[C@H]1c1cccnc1 [COTININE],IC50,[34],> 33.3 µM (inactive)
Cc1nccn1CC(=O)N/N=C/c1ccc(O)c(O)c1,IC50,[14],39 µM (inconclusive)
